Reference: BindingDB's records for doi:10.1021/ml300214g (2012)

Test: Inhibition of CSF1R in mouse M-NFS-60 cells assessed as inhibition of cell proliferation after 72 hrs by Celltiter-Blue assay

Structure (SMILES)	IC50 [nM]
CCN1C(C)(C)CC(Oc2ccc(C(=O)Nc3ccc(NC(=O)Nc4cc(C(C)(C)C)on4)cc3)nc2)CC1(C)C	46.3
Cc1ccc(C(=O)Nc2ccc(NC(=O)Nc3cc(C(C)(C)C)on3)cc2)nc1	223
Cc1ccnc(C(=O)Nc2ccc(NC(=O)Nc3cc(C(C)(C)C)on3)cc2)c1	63.9
CC1(C)CC(Oc2ccc(C(=O)Nc3ccc(NC(=O)Nc4cc(C(C)(C)C)on4)cc3)nc2)CC(C)(C)N1	74.7

The remaining lines, values ahead:

IC50 [nM]	Structure (SMILES)
78	CC(C)N1CCC(Oc2ccc(C(=O)Nc3ccc(NC(=O)Nc4cc(C(C)(C)C)on4)cc3)nc2)CC1
50.4	CN1C(C)(C)CC(Oc2ccc(C(=O)Nc3ccc(NC(=O)Nc4cc(C(C)(C)C)on4)cc3)nc2)CC1(C)C
150	CC(C)(C)c1cc(NC(=O)Nc2ccc(NC(=O)c3ccc(OC4CCN(C5CC5)CC4)cn3)cc2)no1
64.4	CC(C)(C)c1cc(NC(=O)Nc2ccc(NC(=O)c3ccc(OC4CCN(C(C)(C)C)CC4)cn3)cc2)no1
